For series [1], the system named is patients with advanced solid tumours. The following applies: human, in vivo. An excerpt:
This phase 1 open-label, multicentre, dose-escalation, and safety expansion study evaluated veliparib in combination with bimonthly FOLFIRI in patients with advanced solid tumours. The primary objectives were to determine the maximum tolerated dose (MTD) and establish the recommended phase 2 dose (RP2D) of the combination therapy. Secondary objectives were to assess the safety and tolerability, PK profile, and exploratory efficacy of the combination for each of the FOLFIRI regimens. Patients received veliparib and bimonthly FOLFIRI in 28-day cycles. Veliparib was administered on days 15–19 in cycle 1 and on days 1–5 and 15–19 in subsequent cycles (Fig. 1). Patients with stable disease or better status could continue veliparib and bimonthly FOLFIRI at the investigator’s discretion until progressive disease (PD), unacceptable toxicity, or FOLFIRI discontinuation. The trial was registered with the ClinicalTrials.gov registry (NCT01123876) and was approved by appropriate independent ethics committees/institutional review boards prior to initiation. The study was performed in accordance with the 1964 Declaration of Helsinki and its later amendments. Written informed consent was obtained from all patients before study enrollment.
Dose escalation occurred in three parts to evaluate the MTD/RP2D of three different bimonthly FOLFIRI regimens in combination with veliparib (Fig. 1). A minimum of three patients per dose level were included for dose-toxicity modeling. In part 1, dose escalation began with veliparib twice daily (BID) on days 15–19 of cycle 1 (to allow the determination of single-agent PK for irinotecan, the active metabolite of irinotecan (SN-38), folinic acid, and 5-FU on cycle 1 day 1). In parts 2 and 3, dose escalation began with veliparib BID on day 15 of cycle 1. The differences in the dosing schedules of parts 1, 2, and 3 relate to dosing of irinotecan and 5-FU, and are detailed in Fig. 1. In all parts, veliparib continued to be administered on days 1–5 and 15–19 of each subsequent 28-day cycle. […]

The nature of series [2]: Pharmacokinetics of FOLFIRI components with and without veliparib (relative bioavailability). The following applies: for 90% CIs for the relative bioavailability (Cmax and AUCt): presence (cycle 1 day 15) vs absence (cycle 1 day 1) of veliparib; for Cmax: human, plasma, intravenous, central value. The procedure:
Treatment-emergent adverse events (TEAEs) were assessed from the time of study drug administration until 30 days following discontinuation of study drug. TEAEs were assessed according to the National Cancer Institute Common Terminology Criteria for Adverse Events version 4.0. In dose-escalation cohorts, blood samples were collected on day 15 of cycle 1 for veliparib PK, and on days 1 and 15 of cycle 1 for PK assessment of the FOLFIRI components irinotecan, SN-38, folinic acid (leucovorin), and 5-FU. Exploratory efficacy end points included objective response rate (ORR), time to disease progression (TTP), duration of overall response (DOR), and ECOG performance status. Objective response rate included confirmed complete response (CR) and partial response (PR). Objective response rate evaluation was based on Response Evaluation Criteria in Solid Tumours version 1.1. Objective response rate was calculated for all patients with one or more measurable lesions at baseline. Time to disease progression was defined as the number of days from the date the patient started study drug to the date of the patient’s disease progression. Duration of overall response was defined as the number of days from the day criteria were met for CR or PR (whichever was recorded first) to the date that PD was objectively documented. If a patient was still responding, the patient’s data were censored at the date of the last study visit at which a tumour assessment was performed. Analyses of change and/or percentage change from baseline for tumour size were performed for each scheduled post-baseline visit and for the final visit. ECOG performance status was assessed at all visits, with descriptive statistics summarised for each assessment. In addition, a mean change from baseline to each assessment time was summarised.
The sample size was based on clinical justification. No specific statistical hypothesis tests were planned, with descriptive statistics used for the analysis of safety, PK, and tumour response data. The study population for all safety and preliminary efficacy analyses included patients who received one or more doses of study medication. Data from parts 1–3 of the dose-escalation cohort were combined for assessment of the effect of veliparib on the PK of irinotecan, SN-38, and folinic acid. Linear mixed effects models were performed on natural logarithmically transformed maximum plasma concentration (Cmax) and area under the plasma or serum concentration-time curve (AUC) to compare exposure of irinotecan, SN-38, and folinic acid with and without the administration of veliparib. Point estimates and the corresponding 90% confidence intervals (CIs) of the ratio of central values with and without veliparib administration were calculated.

Series [3] deals with platinum-sensitive relapsed ovarian cancer and a BRCA1/2 mutation. On the set-up: method as in PMID 28754483. The conditions noted are these: maintenance treatment, vs placebo; cited from earlier work.
The mark [4] stands for this setting: FOLFIRI + veliparib, cycle 1 day 15.

SMILES strings stand for the structures.

In the case of `O=c1[nH]cc(F)c(=O)[nH]1` [5-FU, 5-fluorouracil], the “Tolerability of 400 mg/m^2 bolus 5-FU dose” value in series [1] is “not tolerated”. Also, the “Median ratio of 5-FU concentrations, cycle 1 day 15 to cycle 1 day 1” value in series [2] (2 h after the start of infusion) was found to be 1.03; in series [2] (24 h after the start of infusion) it was 0.95.

In the case of `Nc1nc2c(c(=O)[nH]1)N(C=O)[C@H](CNc1ccc(C(=O)N[C@@H](CCC(=O)O)C(=O)O)cc1)CN2` [(R)-Leucovorin, dextroleucovorin], in series [2] (setting [4]), the “AUCt, central value, test” value is 172200 ng·h/mL and the “Cmax, central value, test” value was found to be 39860 ng/mL. For the same compound, in series [2] (FOLFIRI alone, cycle 1 day 1), the “AUCt, central value, reference” value turned out to be 180400 ng·h/mL and the “Cmax, central value, reference” value was 41870 ng/mL. In series [2], the “90% CIs for the relative bioavailability (Cmax and AUCt)” value is “within the pre-established boundaries of 0.80 to 1.25”.

In the case of `Nc1nc(=O)c2c([nH]1)NC[C@H](CNc1ccc(C(=O)N[C@@H](CCC(=O)O)C(=O)O)cc1)N2C=O` [(S)-Leucovorin, levoleucovorin], in series [2] (setting [4]), the “AUCt, central value, test” value amounted to 28470 ng·h/mL and the “Cmax, central value, test” value was found to be 13270 ng/mL. In series [2] (FOLFIRI alone, cycle 1 day 1), the “AUCt, central value, reference” value worked out at 29360 ng·h/mL and the “Cmax, central value, reference” value came out at 14220 ng/mL. Besides, the “90% CIs for the relative bioavailability (Cmax and AUCt)” value in series [2] is on record as “within the pre-established boundaries of 0.80 to 1.25”.

Take `CCc1c2c(nc3ccc(OC(=O)N4CCC(N5CCCCC5)CC4)cc13)-c1cc3c(c(=O)n1C2)COC(=O)[C@]3(O)CC` [Irinotecan, irinotecan]: the “AUC0–24, central value, reference” value in series [2] (FOLFIRI alone, cycle 1 day 1) turned out to be 10620 ng·h/mL. For the same compound, the Cmax in series [2] (reference, FOLFIRI alone, cycle 1 day 1) came to 1780 ng/mL; in series [2] (test, FOLFIRI + veliparib, cycle 1 day 15), 1790 ng/mL. In series [2], the “90% CIs for the relative bioavailability (Cmax and AUCt)” value is listed as “within the pre-established boundaries of 0.80 to 1.25”.

As for `CCc1c2c(nc3ccc(O)cc13)-c1cc3c(c(=O)n1C2)COC(=O)[C@]3(O)CC` [SN-38], in series [2] (setting [4]), the “AUCt, central value, test” value came out at 157.8 ng·h/mL and the “Cmax, central value, test” value worked out at 17.65 ng/mL. In addition, in series [2] (FOLFIRI alone, cycle 1 day 1), the “AUCt, central value, reference” value amounted to 157.9 ng·h/mL and the “Cmax, central value, reference” value stood at 18.31 ng/mL. Moreover, the “90% CIs for the relative bioavailability (Cmax and AUCt)” value in series [2] is “within the pre-established boundaries of 0.80 to 1.25”.

With `O=C(c1cc(Cc2n[nH]c(=O)c3ccccc23)ccc1F)N1CCN(C(=O)C2CC2)CC1` [olaparib], in series [3], the “Median PFS” value is 19.1 months.
